Results taken from PMC2131757 (BMC Neuroscience, 2007).

What was measured:
Format in all cases: cell-based, murine
[1] = test system: cPLA2 in NB4 1A3 neuroblastoma cells
[2] = test system: COX-1 in NB4 1A3 neuroblastoma cells
[3] = test system: NB4 1A3 neuroblastoma cells; conditions: n = 6
NB4 neuroblastoma cells = test system: NB4 neuroblastoma cells
[4] = test system: NB4 1A3 neuroblastoma cells
[5] = test system: NB4 1A3 neuroblastoma cells; remark: listed apart in the source
[6] = test system: NB4 1A3 neuroblastoma cells; remark: listed apart in the source

1-O-alkyl-2-acetyl-sn-glycerol-3-phospho-(N,N,N-trimethyl)-hexanolamine [Hexa-PAF]
% of MoPrP105-132 co-localised with cPLA2 in Hexa-PAF-treated cells [1]: 22% ± 6
% of MoPrP105-132 co-localised with COX-1 in Hexa-PAF-treated cells [2]: 13% ± 3

C=C(CC[C@]12O[C@H](C(=O)O)[C@@](O)(C(=O)O)[C@](C(=O)O)(O1)[C@H](OC(=O)/C=C/[C@@H](C)C[C@@H](C)CC)[C@H]2O)[C@@H](OC(C)=O)[C@H](C)Cc1ccccc1 [Squalestatin, squalestatin]
cell associated fluorescence (mean fluorescence intensity) of ingested MoPrP105-132 in squalestatin treated cells [3]: 25.3 ± 4 arbitrary units
% of MoPrP105-132 co-localised with cPLA2 in squalestatin-treated cells [1]: 13% ± 4
effect of squalestatin treatment on MoPrP105-132 induced neurotoxicity (NB4 neuroblastoma cells): prevent peptide-induced neurotoxicity
membrane fraction in which MoPrP105-132 is found (raft / non-raft) in squalestatin-treated cells [4]: most of the MoPrP105-132 was detected in the non-raft fraction
endosomal fraction in which MoPrP105-132 is detected in squalestatin-treated cells [5]: detected in the LAMP-1 positive, TfR negative, lysosomal fraction
% of MoPrP105-132 co-localised with COX-1 in squalestatin-treated cells [2]: 5% ± 5
% of MoPrP105-132 co-localised with CTxB in squalestatin-treated cells [6]: 5% ± 1
% of MoPrP105-132 co-localised with GM130 (Golgi) in squalestatin-treated cells [6]: 7% ± 2
% of MoPrP105-132 co-localised with Grp78 (ER) in squalestatin-treated cells [6]: 3% ± 2
% of MoPrP105-132 co-localised with LAMP-1 (lysosomes) in squalestatin-treated cells [6]: 40% ± 6
% of MoPrP105-132 co-localised with TfR (early endosomes) in squalestatin-treated cells [6]: 68% ± 8
% of MoPrP105-132 co-localised with caveolin-1 in squalestatin-treated cells [6]: 9% ± 3
